What was measured:
[1] = Phase I metabolism kinetics (parent toxin loss) in NADPH-fortified porcine liver microsomes, LC-MS/MS; type: in vitro ADME, pig; details: for microsomal CLint: Large White, pH 7.4, porcine LMs, read-out: CLint (intrinsic clearance)
Method: (§1) Pooled human LMs and pooled Sprague–Dawley rat hepatic microsomes, both originating from male donors, were purchased from Sigma-Aldrich (St. Louis, MO, USA) and Gibco, Thermo Fisher Scientific (Waltham, MA, USA), respectively. Porcine LMs were prepared according to an in-house-developed protocol based on the publication of Knights et al.[32] The liver of an approximately four-month-old female “Large White” (or “German Edelschwein”) pig was obtained from a local slaughterhouse. After slaughtering, the liver was placed on ice for about an hour, kept in ice-cold 50 mM tris(hydroxymethyl)aminomethane hydrochloride (Tris–HCl) (pH 7.4) for an additional hour while being transported, and processed immediately.
(§2) The kinetics of the phase I metabolism of AOH and AME was investigated by incubating human, rat (both 1 mg protein/mL), and porcine LMs (2 mg protein/mL) with 1, 10, 20, 50, and 100 μM AOH or 1, 10, 20, and 50 μM AME based on the protocol by Al-Subeihi et al.[34] The incubation solution contained a final concentration of 3 mM NADPH and 1 mM ascorbic acid in 200 mM Tris–HCl (pH 7.4). After preincubation (37 °C, 1 min, mixing at 250–300 rpm), the toxin stock was added in a 1:100 dilution, resulting in a total DMSO content of 1% and the desired toxin concentration. DMSO was selected for this assay because it is the least inhibitory of the solvents studied by Busby et al. on CYP1A1,[35] the primary enzyme involved in the hydroxylation of AOH and AME.[26] The well-established solubility of the test compounds in DMSO and DMSO-containing aqueous buffers facilitated laboratory work and ensured consistency with existing literature, thereby improving the comparability of results across studies, including those of Pfeiffer and colleagues.[25] In a preliminary investigation, incubation times of 5 and 10 min were chosen because they fall within the linear range of the transformation rate–time relationship, thereby ensuring initial rate conditions (Figure S1). When the selected incubation time (0–10 min) passed, one part of the sample was pipetted into two parts of ice-cold extraction solvent (acetonitrile–methanol, 1:1, v/v) for reaction termination. Subsequently, the samples were placed into the freezer (−20 °C) for at least an hour, centrifuged (15 min, 18,000g, 4 °C), and further diluted in methanol–water (3:7, v/v) prior to LC–MS measurements. In the solvent control, the toxin was substituted with DMSO in the incubation solution. Control incubations were performed without the cofactor NADPH or with heat-inactivated microsomes (98 °C, 10 min, mixing at 300 rpm).
(§3) The quantification of selected analytes using external calibration (MS parameters listed in Supporting Information Table S1) was conducted on a high-performance liquid chromatographic system (Dionex UltiMate 3000 UHPLC, Dionex Softron GmbH, Germering, Germany) coupled to a triple quadrupole mass spectrometer (TSQ Vantage, Thermo Fisher Scientific, Waltham, MA, USA), equipped with a heated electrospray ionization (ESI) interface. The applied analytical method is based on Puntscher et al.[28],[36] with slight modifications, which are specified below.
(§4) In brief, the Ascentis Express C18 column (10 cm × 2.1 mm, 2.7 μm, Supelco, Munich, DE), equipped with the Phenomenex SecurityGuard (C18 Cartridges, 4 × 2.0 mm ID, Phenomenex Ltd. Deutschland, Aschaffenburg, Germany), served as the stationary phase. Eluent A was aqueous ammonium acetate (5 mM, pH adjusted to 8.6 with a 25% ammonia solution), and eluent B was methanol. During the first minute, the column was kept at 30% eluent B. Subsequently, the eluent B content was linearly raised to 100% within 6 min. Thereafter, the column was washed with 100% eluent B for 1.5 min. Lastly, the column was re-equilibrated at the initial conditions, reaching an overall run time of 10 min. The autosampler compartment was kept at 10 °C, while the column oven temperature was maintained at 30 °C. […]

[2] = Phase I metabolism kinetics (parent toxin loss) in NADPH-fortified rat liver microsomes, LC-MS/MS; type: in vitro ADME, Sprague–Dawley rat; details: for microsomal CLint: Sprague-Dawley, rat, pH 7.4, rat LMs, read-out: CLint (intrinsic clearance)
Method: as §1, §2, §3, §4

[3] = Phase I metabolism kinetics (parent toxin loss) in NADPH-fortified human liver microsomes, LC-MS/MS; type: in vitro ADME; details: for microsomal CLint: human, pH 7.4, human LMs, read-out: CLint (intrinsic clearance)
Method: as §1, §2, §3, §4

[4] = Caco-2 cell monolayers; cited from earlier work
[5] = male, liver microsomes, Michaelis–Menten model, ratio Vmax/Km
[6] = male, liver microsomes, linear regression, lower concentration range

Cc1cc(O)cc2oc(=O)c3c(O)cc(O)cc3c12 [AOH, alternariol]
Km ([1]; female, Large White (German Edelschwein), pig, liver microsomes, pH 7.4, porcine LMs 2 mg protein/mL, NADPH, within 10 min, Michaelis–Menten model, read-out: Km (Michaelis constant)): 672 µM | microsomal CLint ([1]; female, pig, liver microsomes, Michaelis–Menten model, ratio Vmax/Km): 8.52 µL/min/mg | microsomal CLint ([1]; female, pig, liver microsomes, linear regression, lower concentration range): 6.56 µL/min/mg | Concentration decrease ([1]; porcine LMs, 1 µM toxin, 5 min): 20% | Concentration decrease ([1]; porcine LMs, 1 µM toxin, 10 min): 47% | Concentration decrease ([1]; porcine LMs, 10 µM toxin, 5 min): 6% | Concentration decrease ([1]; porcine LMs, 10 µM toxin, 10 min): 16% | Concentration decrease ([1]; porcine LMs, 20 µM toxin, 5 min): 2% | Concentration decrease ([1]; porcine LMs, 20 µM toxin, 10 min): 15% | Concentration decrease ([1]; porcine LMs, 50 µM toxin, 5 min): 11% | Concentration decrease ([1]; porcine LMs, 50 µM toxin, 10 min): 14% | Concentration decrease ([1]; porcine LMs, 100 µM toxin, 5 min): 12% | Concentration decrease ([1]; porcine LMs, 100 µM toxin, 10 min): 14% | Vmax (maximum transformation rate) ([1]; porcine LMs, within 10 min, Michaelis–Menten model): 5730 pmol/mg/min | microsomal CLint [2, 5]: 35.9 µL/min/mg | microsomal CLint [2, 6]: 29.9 µL/min/mg | Km ([2]; male, Sprague–Dawley, liver microsomes, pH 7.4, rat LMs 1 mg protein/mL, NADPH, within 10 min, Michaelis–Menten model, read-out: Km (Michaelis constant)): 78.7 µM | Concentration decrease ([2]; rat LMs, 1 µM toxin, 5 min): 11% | Concentration decrease ([2]; rat LMs, 1 µM toxin, 10 min): 19% | Concentration decrease ([2]; rat LMs, 10 µM toxin, 5 min): 13% | Concentration decrease ([2]; rat LMs, 10 µM toxin, 10 min): 27% | Concentration decrease ([2]; rat LMs, 20 µM toxin, 5 min): 14% | Concentration decrease ([2]; rat LMs, 20 µM toxin, 10 min): 28% | Concentration decrease ([2]; rat LMs, 50 µM toxin, 5 min): 6% | Concentration decrease ([2]; rat LMs, 50 µM toxin, 10 min): 9% | Concentration decrease ([2]; rat LMs, 100 µM toxin, 5 min): 5% | Concentration decrease ([2]; rat LMs, 100 µM toxin, 10 min): 12% | Vmax (maximum transformation rate) ([2]; rat LMs, within 10 min, Michaelis–Menten model): 2830 pmol/mg/min | Concentration decrease ([3]; human LMs, 1 µM toxin, 5 min): 28% | Concentration decrease ([3]; human LMs, 1 µM toxin, 10 min): 53% | Concentration decrease ([3]; human LMs, 10 µM toxin, 5 min): 11% | Concentration decrease ([3]; human LMs, 10 µM toxin, 10 min): 17% | Concentration decrease ([3]; human LMs, 20 µM toxin, 5 min): 10% | Concentration decrease ([3]; human LMs, 20 µM toxin, 10 min): 20% | Concentration decrease ([3]; human LMs, 50 µM toxin, 5 min): 12% | Concentration decrease ([3]; human LMs, 50 µM toxin, 10 min): 22% | Concentration decrease ([3]; human LMs, 100 µM toxin, 5 min): 20% | Concentration decrease ([3]; human LMs, 100 µM toxin, 10 min): 39% | Vmax (maximum transformation rate) ([3]; human LMs, within 10 min, Michaelis–Menten model): 3370 pmol/mg/min | microsomal CLint [3, 5]: 25.8 µL/min/mg | microsomal CLint [3, 6]: 19.9 µL/min/mg | Km ([3]; male, liver microsomes, pH 7.4, human LMs 1 mg protein/mL, NADPH, within 10 min, Michaelis–Menten model, read-out: Km (Michaelis constant)): 131 µM | intestinal absorption [4]: limited intestinal absorption

— PMC11337205, “Unraveling Interspecies Differences in the Phase I Hepatic Metabolism of Alternariol and Alternariol Monomethyl Ether: Closing Data Gaps for a Comprehensive Risk Assessment” (Chemical Research in Toxicology, 2024)
